Measurements from patent US20090285773A1, “Hepatitis C Virus Inhibitors” (Bristol-Myers Squibb Company, priority 2008, published 2009).
Where two headings read alike, the source gives them in different places.

Tests used:
[1] = molecular target: T1, human neutrophil elastase (HNE) (Homo sapiens, UniProt P08246); experiment: Specificity assay, human neutrophil elastase; assay type: biochemical; settings: read-out: HLE activity in the specificity assays
T1 sequence (P08246 30-267): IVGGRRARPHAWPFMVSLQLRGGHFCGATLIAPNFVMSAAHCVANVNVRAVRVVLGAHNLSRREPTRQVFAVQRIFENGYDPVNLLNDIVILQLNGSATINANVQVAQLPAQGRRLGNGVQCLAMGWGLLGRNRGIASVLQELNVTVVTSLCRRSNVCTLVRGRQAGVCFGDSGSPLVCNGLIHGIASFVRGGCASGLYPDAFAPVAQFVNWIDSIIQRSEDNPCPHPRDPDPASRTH
Description: (§1) The specificities of compounds of the present disclosure were determined against a variety of serine proteases: human neutrophil elastase (HNE), porcine pancreatic elastase (PPE) and human pancreatic chymotrypsin and one cysteine protease: human liver cathepsin B. In all cases a 96-well plate format protocol using a fluorometric Amino-Methyl-Coumarin (AMC) substrate specific for each enzyme was used as described previously (PCT Patent Application No. WO 00/09543) with some modifications to the serine protease assays. All enzymes were purchased from Sigma, EMDbiosciences while the substrates were from Bachem, Sigma and EMDbiosciences.
(§2) Compound concentrations varied from 100 to 0.4 μM depending on their potency. The enzyme assays were each initiated by addition of substrate to enzyme-inhibitor pre-incubated for 10 min at room temperature and hydrolysis to 15% conversion as measured on cytofluor. […]
(§3) The percentage of inhibition was calculated using the formula: […]

[2] = tested on: human pancreatic chymotrypsin; experiment: Specificity assay, chymotrypsin; assay type: biochemical; settings: read-out: Chymotrypsin activity in the specificity assays
Description: as §1, §2, §3

[3] = molecular target: T2, human liver cathepsin B (Homo sapiens, UniProt P07858); experiment: Specificity assay, cathepsin B; assay type: biochemical; settings: read-out: Cathepsin B activity in the specificity assays
T2 construct: host or cells: human liver
Description: as §1, §2, §3

[4] = tested on: HCV replicon (strain 1b) in HUH-7 cells; experiment: HCV replicon FRET assay; assay type: cell-based; settings: Hepatitis C virus
Description: An HCV replicon whole cell system was established as described by Lohmann V, Korner F, Koch J, Herian U, Theilmann L, Bartenschlager R., Science 285(5424): 110-3 (1999). This system enabled us to evaluate the effects of our HCV Protease compounds on HCV RNA replication. Briefly, using the HCV strain 1b sequence described in the Lohmann paper (Assession number:AJ238799), an HCV cDNA was synthesized by Operon Technologies, Inc. (Alameda, Calif.), and the full-length replicon was then assembled in plasmid pGem9zf(+) (Promega, Madison, Wis.) using standard molecular biology techniques. The replicon consists of (i) the HCV 5′ UTR fused to the first 12 amino acids of the capsid protein, (ii) the neomycin phosphotransferase gene (neo), (iii) the IRES from encephalomyocarditis virus (EMCV), and (iv) HCV NS3 to NS5B genes and the HCV 3′ UTR. Plasmid DNAs were linearized with ScaI and RNA transcripts were synthesized in vitro using the T7 MegaScript transcription kit (Ambion, Austin, Tex.) according to manufacturer's directions. In vitro transcripts of the cDNA were transfected into the human hepatoma cell line, HUH-7. […] Resulting cell lines were characterized for positive and negative strand RNA production and protein production over time.
The HCV replicon FRET assay was developed to monitor the inhibitory effects of compounds described in the disclosure on HCV viral replication. HUH-7 cells, constitutively expressing the HCV replicon, were grown in Dulbecco's Modified Eagle Media (DMEM) (Gibco-BRL) containing 10% Fetal calf serum (FCS) (Sigma) and 1 mg/ml G418 (Gibco-BRL). Cells were seeded the night before (1.5×10^4 cells/well) in 96-well tissue-culture sterile plates. Compound and no compound controls were prepared in DMEM containing 4% FCS, 1:100 Penicillin/Streptomysin (Gibco-BRL), 1:100 L-glutamine and 5% DMSO in the dilution plate (0.5% DMSO final concentration in the assay). Compound/DMSO mixes were added to the cells and incubated for 4 days at 37° C. After 4 days, cells were first assessed for cytotoxicity using alamar Blue (Trek Diagnotstic Systems) for a CC50 reading. The toxicity of compound (CC50) was determined by adding 1/10th volume of alamar Blue to the media incubating the cells. After 4 h, the fluorescence signal from each well was read, with an excitation wavelength at 530 nm and an emission wavelength of 580 nm, using the Cytofluor Series 4000 (Perspective Biosystems). Plates were then rinsed thoroughly with Phosphate-Buffered Saline (PBS) (3 times 150 μl).

[5] = molecular target: porcine pancreatic elastase (PPE) (Sus scrofa, UniProt P00772); experiment: Specificity assay, porcine pancreatic elastase; assay type: biochemical; settings: read-out: PPE activity in the specificity assays
porcine pancreatic elastase (PPE), sequence (P00772 27-266): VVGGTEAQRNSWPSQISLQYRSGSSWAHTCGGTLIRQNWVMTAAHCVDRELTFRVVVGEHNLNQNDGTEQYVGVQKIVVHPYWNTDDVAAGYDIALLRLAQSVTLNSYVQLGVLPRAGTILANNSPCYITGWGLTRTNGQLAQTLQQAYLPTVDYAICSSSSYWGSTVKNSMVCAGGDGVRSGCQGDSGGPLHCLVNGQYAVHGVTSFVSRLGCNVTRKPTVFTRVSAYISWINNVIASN
Description: as §1, §2, §3

## COc1ccc2c(O[C@@H]3C[C@H]4C(=O)N[C@]5(C(=O)NS(=O)(=O)C6CC6)C[C@H]5/C=C\CCCCC[C@H](Nc5ccc(OC)nc5)C(=O)N4C3)nccc2c1 (single isomer, unassigned) [Compound 1]
[1]
  IC50: 1500 nM
[2]
  IC50: 25000 nM
[3]
  IC50: > 25000 nM
[4]; 96 h, HUH-7 replicon cells, 4 days, read-out: EC50 value in the replicon FRET assay
  EC50: 21 nM
[4]; Huh-7, Table 2, replicon assay variant and unit inferred, read-out: EC50
  EC50: 20.5 nM
[5]
  IC50: > 25000 nM
